Reference: PMC12186843, “Targeting GABAergic Hypofunction Associated with Schizophrenia: Identification of α1β2γ2GABA‑A Receptor Ligands with Neuroprotective and Antipsychotic Properties” (ACS Chemical Neuroscience, 2025)

Tested on: Wistar rats
Assay: Amphetamine-induced hyperlocomotion
Type: in vivo, rat
Conditions: i.p., doses of 3.0 mg/kg and 10.0 mg/kg, amphetamine 1.0 mg/kg i.p., p < 0.01
Description: 8 (A). […] The dose of 0 mg/kg corresponds to subjects treated with vehicle and amphetamine (1.0 mg/kg, i.p.). Data are presented as the mean ± SEM (n = 8). One-way ANOVA F(3,28)=0.2, p > 0.05, one-way ANOVA F(3,28)=[…], p < 0.01**. (B). […] The dose of 0 mg/kg corresponds to subjects treated with vehicle and MK-801 (0.3 mg/kg, i.p.). Data are presented as the mean ± SEM (n = 8). ** p < 0.01, Newman-Keuls test, F(3,28)=5.29, p = 0.005. (C) Effects of compound 9, administered at doses ranging from 1 to 10 mg/kg, on spontaneous locomotor activity in rats. Data are presented as the mean ± SEM (n = 8). One-way ANOVA F(3,28) = 0.3, p > 0.05, one-way ANOVA F(3,28) = 6.7, p < 0.01*.
All behavioral procedures were conducted using drug-naive male Wistar rats (Charles River, Sulzfeld, Germany), (n = 8/per group). Animals were housed in groups of four per standard plastic cage under controlled environmental conditions (temperature: 22 ± 1 °C, humidity: 60%, and a 12:12 light-dark cycle with lights on at 07:00 a.m.). […]
All procedures were performed in a sound-attenuated experimental room between 9:00 a.m. and 3:00 p.m. […] Locomotor activity was measured in black octagonal cages (80 cm diameter, 30 cm height) amid dim lighting and constant white noise (65 dB). […] Locomotor activity (cm/30 min) was recorded and analyzed using an automated motion monitoring system (Videomot, TSE, Bad Homburg, Germany). […]

Compound: Cc1ccc2nc(-c3ccc(F)cc3)c(CC(=O)N3CCCC3)n2c1.O=C(O)C(O)C(O)C(=O)O [Compound 17, 2-(4-Fluorophenyl)-6-methyl-3-(2-oxo-2-(pyrrolidin-1-yl)-ethyl)imidazo[1,2-a]pyridin-1-ium 3-carboxy-2,3-dihydroxy-propanoate]
- Effect on amphetamine-induced hyperlocomotion: significantly reduced amphetamine-induced hyperlocomotion
